# Assay results taken from patent publication US20230279020A9, “CARM1 INHIBITORS AND USES THEREOF” (Epizyme, Inc., priority 2013, published 2023).
# Molecular target: Human CARM1 (PRMT4) (Homo sapiens (Human), UniProt Q86X55)
# Assay: CARM1 enzyme assay on peptide substrate (3H-SAM Flashplate)
# Conditions: Biochemical potencies, classification codes; read-out: Biochem IC50
# Text: S-adenosylmethionine (SAM), S-adenosylhomocysteine (SAH), bicine, Tween20, dimethylsulfoxide (DMSO), bovine skin gelatin (BSG), sodium butyrate and Tris(2-carboxyethyl)phosphine hydrochloride solution (TCEP) were purchased from Sigma-Aldrich at the highest level of purity possible. ^3H-SAM was purchase from American Radiolabeled Chemicals with a specific activity of 80 Ci/mmol. 384-well streptavidin Flashplates were purchased from PerkinElmer.
# Peptide representative of human histone H3 residues 16-30 was synthesized with an N-terminal linker-affinity tag motif and a C-terminal amide cap by 21st Century Biochemicals. […] The sequence was Biot-Ahx-[…]-amide and contained a monomethylated arginine at position 26 (SEQ ID NO.:1).
# The gene sequence encoding isoform1 containing a deletion of amino acids 539-561 was amplified subsequently and subcloned into pFastBacMam (Viva Biotech).
# Recombinant baculovirus were generated according to Bac-to-Bac kit instructions (Life Technologies). Protein over-expression was accomplished by infecting exponentially growing HEK 293F cell culture at 1.3×10^6cell/ml with virus (MOI=10) in the presence of 8 mM sodium butyrate. Infections were carried out at 37° C. for 48 hours, harvested by centrifugation, and stored at −80° C. for purification.
# Expressed full-length human Flag- and His-tagged CARM1 protein was purified from cell paste by anti-flag M2 affinity chromatography with resin equilibrated with buffer containing 20 mM Tris, 150 mM NaCl, 5% glycerol, pH 7.8. Column was washed with 500 mM NaCl in buffer A and Flag-CARM1-His was eluted with 200 ug/ml FLAG peptide in buffer A. Pooled fractions were dialyzed in 20 mM Tris, 150 mM NaCl, 5% glycerol and 1 mM DTT, pH 7.8.
# The assays were all performed in a buffer consisting of 20 mM Bicine (pH=7.6), 1 mM TCEP, 0.005% BSG, and 0.002% Tween 20, prepared on the day of use. Compounds in 100% DMSO (1 ul) were spotted into a polypropylene 384-well V-bottom plates (Greiner) using a Platemate Plus outfitted with a 384-channel head (Thermo Scientific). DMSO (1 ul) was added to Columns 11, 12, 23, 24, rows A-H for the maximum signal control and 1 ul of SAH, a known product and inhibitor of CARM1, was added to columns 11, 12, 23, 24, rows I-P for the minimum signal control. A cocktail (40 ul) containing the CARM1 enzyme was added by Multidrop Combi (Thermo-Fisher). The compounds were allowed to incubate with CARM1 for 30 min at room temperature, then a cocktail (10 ul) containing ^3H-SAM and peptide was added to initiate the reaction (final volume=51 ul). The final concentrations of the components were as follows: CARM1 was 0.25 nM, ^3H-SAM was 30 nM, peptide was 250 nM, SAH in the minimum signal control wells was 1 mM, and the DMSO concentration was 2%. The assays were stopped by the addition of non-radiolabeled SAM (10 ul) to a final concentration of 300 uM, which dilutes the ^3H-SAM to a level where its incorporation into the peptide substrate is no longer detectable. 50 ul of the reaction in the 384-well polypropylene plate was then transferred to a 384-well Flashplate and the biotinylated peptides were allowed to bind to the streptavidin surface for at least 1 hour before being washed once with 0.1% Tween20 in a Biotek ELx405 plate washer. The plates were then read in a PerkinElmer TopCount plate reader to measure the quantity of ^3H-labeled peptide bound to the Flashplate surface, measured as disintegrations per minute (dpm) or alternatively, referred to as counts per minute (cpm).
# where dpm=disintegrations per minute, cmpd=signal in assay well, and min and max are the respective minimum and maximum signal controls.
# where top and bottom are the normally allowed to float, but may be fixed at 100 or 0 respectively in a 3-parameter fit. The Hill Coefficient normally allowed to float but may also be fixed at 1 in a 3-parameter fit. Y is the % inhibition and X is the compound concentration.
# Sequence of Human CARM1 (PRMT4) (Q86X55 other isoform, or with tags, fused parts or gaps isoform Q86X55-1): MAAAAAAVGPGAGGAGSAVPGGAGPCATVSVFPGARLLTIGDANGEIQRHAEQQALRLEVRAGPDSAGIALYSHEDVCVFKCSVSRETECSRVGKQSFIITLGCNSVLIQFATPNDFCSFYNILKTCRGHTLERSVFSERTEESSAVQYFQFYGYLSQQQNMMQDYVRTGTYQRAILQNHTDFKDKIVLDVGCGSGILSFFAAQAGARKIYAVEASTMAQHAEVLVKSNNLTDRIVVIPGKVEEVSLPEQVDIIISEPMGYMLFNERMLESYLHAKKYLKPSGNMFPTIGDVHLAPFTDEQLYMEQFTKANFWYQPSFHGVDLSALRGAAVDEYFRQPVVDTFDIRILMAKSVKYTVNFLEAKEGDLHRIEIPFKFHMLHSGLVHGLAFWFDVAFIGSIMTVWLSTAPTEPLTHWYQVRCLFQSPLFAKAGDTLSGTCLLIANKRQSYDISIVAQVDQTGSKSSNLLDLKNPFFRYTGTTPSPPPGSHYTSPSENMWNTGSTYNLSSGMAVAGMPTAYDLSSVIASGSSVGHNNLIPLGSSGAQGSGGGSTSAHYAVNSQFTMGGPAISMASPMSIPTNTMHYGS
row,SMILES,IC50 [nM]
1,CNCC(O)COc1cccc(-c2nc(-c3c(C)noc3C)c(C)c(N3CCN(C(=O)C4CCOCC4)CC3)n2)c1 (centres unmarked) [Example 108-1a],< 100
2,CNCC(O)COc1cccc(-c2nc(-c3c(C)noc3C)c(C)c(N3CCN(C(=O)C(F)F)CC3)n2)c1 (centres unmarked) [Example 107-1a],< 100
3,CNC[C@@H](O)COc1ccc(F)c(-c2nc(NC3CCN(C(=O)OC)CC3)c(C)c(-c3c(C)noc3C)n2)c1 [Example 40-3],< 100
4,CCS(=O)(=O)N1CCN(c2nc(-c3cccc(OCC(O)CNC)c3)nc(N[C@@H]3CCOC3)c2C)CC1 (some centres unmarked) [Example 464-1a],< 100
5,CNCC(O)COc1cccc(-c2nc(NCC3CCOCC3)c(F)c(-c3c(C)noc3C)n2)c1 (centres unmarked) [Example 143-1a],< 100
6,CNCC(O)COc1cccc(-c2nc(NCC3CN(C)CCO3)c(C)c(-c3c(C)noc3C)n2)c1 (centres unmarked) [Example 171-1a],< 100
7,CNCC(O)COc1cccc(-c2nc(N3CC4CCC(C3)O4)cc(N(C)C3CCOCC3)n2)c1 (centres unmarked) [Example 566-1a],< 100
8,CNCC(O)COc1cc(Cl)cc(-c2nc(-c3ccncc3)c(C)c(N(C)[C@H]3CCOC3)n2)c1 (some centres unmarked) [Example 334-1a],< 100
9,CNCC(O)COc1cccc(-c2nc(-c3ccncc3)c(C)c(N(C)[C@@H]3CCOC3)n2)c1 (some centres unmarked) [Example 339-1a],< 100
10,CNCC(O)COc1cccc(-c2nc(-c3c(C)noc3C)cc(N3CCN(C(C)=O)C[C@H]3C)n2)c1 (some centres unmarked) [Example 39-1a],< 100
11,CNCC(O)COc1ccc(Cl)c(-c2nc(NC3CC4(CCN(C(=O)OC)CC4)C3)c(C)c(-c3c(C)noc3C)n2)c1 (centres unmarked) [Example 37-3],< 100
12,CNCC(O)COc1cccc(-c2nc(-c3c(C)noc3C)cc(N3CCN(n4c(C)nnc4C)CC3)n2)c1 (centres unmarked) [Example 165-1a],< 100
13,CNCC(O)COc1cccc(-c2nc(NC3CCCN(CC(F)F)C3)c(C)c(-c3c(C)noc3C)n2)c1 (centres unmarked) [Example 203-1a],< 100
14,CNCC(O)COc1cccc(-c2nc(-c3ccnc(C#N)c3)cc(N(C)C3CCOCC3)n2)c1 (centres unmarked) [Example 498-1a],< 100
15,CNCC(O)COc1cccc(-c2nc(-c3c(C)noc3C)c(C)c(N3C[C@H](C)O[C@@H](C)C3)n2)c1 (some centres unmarked) [Example 199-1a],< 100
16,CNCC(O)COc1cccc(-c2nc(NC3CCOC3)c(C)c(N3CCN(C(=O)OC)C(C)(C)C3)n2)c1 (centres unmarked) [Example 447-1a],< 100
17,C=C(C)c1cc(N(C)C2CCOCC2)nc(-c2cc(Cl)cc(OCC(O)CNC)c2)n1 (centres unmarked) [Example 619-1a],< 100
18,CNCC(O)COc1cc(Cl)cc(-c2nc(Nc3cncnc3)c(C)c(N(C)C3CCOCC3)n2)c1 (centres unmarked) [Example 506-1a],< 100
19,CNCC(O)COc1cccc(-c2nc(-c3c(C)noc3C)c(C)c(N3CCO[C@@H](CN(C)C(=O)OC)C3)n2)c1 (some centres unmarked) [Example 149-1a],< 100
20,CNCC(O)COc1cccc(-c2nc(C(C)=O)c(C)c(N(C)C3CCOCC3)n2)c1 (centres unmarked) [Example 544-1a],< 100
21,CCS(=O)(=O)N1CCC(Nc2nc(-c3cccc(OCC(O)CNC)c3)nc(-c3c(C)noc3C)c2C)CC1 (centres unmarked) [Example 168-1a],< 100
22,CNCC(O)COc1cccc(-c2nc(N3CCOCC3)c(F)c(N(C)C3CCOCC3)n2)c1 (centres unmarked) [Example 500-1a],< 100
23,CNCC(O)COc1cc(Cl)cc(-c2nc(C(=O)N(C)CC3CCOCC3)cc(N(C)C3CCOCC3)n2)c1 (centres unmarked) [Example 577-1a],< 100
24,CNCC(O)COc1cccc(-c2nc(N[C@@H]3CCOC3)c(C)c(-c3cnc(OC)nc3)n2)c1 (some centres unmarked) [Example 356-1a],< 100
25,CNCC(O)COc1cccc(-c2nc(-c3cnc4ccnn4c3)cc(N(C)C3CCOCC3)n2)c1 (centres unmarked) [Example 564-1a],< 100
26,CNCC(O)COc1cc(Cl)cc(-c2nc(NC3CCOCC3)c(C)c(-c3c(C)noc3C)n2)c1 (centres unmarked) [Example 47-1a],< 100
27,CNCC(O)COc1cccc(-c2nc(-c3ccnc(C(C)(C)O)c3)cc(N(C)C3CCOCC3)n2)c1 (centres unmarked) [Example 503-1a],< 100
28,CNCC(O)COc1cccc(-c2nc(-c3c(C)noc3C)cc(N3CCN(C(=O)N(C)C)[C@@H](C)C3)n2)c1 (some centres unmarked) [Example 91-1a],< 100
29,CNCC(O)COc1cccc(-c2nc(-c3c(C)noc3C)c(C)c(N3CCC4(CC3)CN(S(C)(=O)=O)C4)n2)c1 (centres unmarked) [Example 179-1a],< 100
30,CCOC(=O)N1CCOC[C@@H]1CNc1nc(-c2cccc(OCC(O)CNC)c2)nc(-c2c(C)noc2C)c1C (some centres unmarked) [Example 206-1a],< 100

# The next lines start with the values.
row,IC50 [nM],SMILES
1,< 100,CNC[C@@H](O)COc1ccc(Cl)c(-c2nc(-c3c(C)noc3C)c(C)c(N3Cc4cccc(F)c4C3)n2)c1 [Example 267-3]
2,< 100,CNC[C@H](O)COc1ccc(Cl)c(-c2nc(-c3c(C)noc3C)c(C)c(N3CCN(C)C(C(F)F)C3)n2)c1 (some centres unmarked) [Example 74-3]
3,< 100,CCO[C@@H]1CCC[C@H]1Nc1nc(-c2cc(OC[C@H](O)CNC)ccc2Cl)nc(-c2c(C)noc2C)c1C [Example 240-3]
4,< 100,CNC[C@@H](O)COc1ccc(Cl)c(-c2nc(N[C@H]3CCN(C4CC4)[C@@H](C)C3)c(C)c(-c3c(C)noc3C)n2)c1 [Example 170-3]
5,< 100,CNC[C@@H](O)COc1ccc(Cl)c(-c2nc(N[C@H]3CO[C@H](C)C3)c(C)c(-c3c(C)noc3C)n2)c1 [Example 198-3]
6,< 100,CNC[C@H](O)COc1ccc(F)c(-c2nc(-c3c(C)noc3C)c(C)c(N3CCC4(CC3)CN(C(=O)OC)C4)n2)c1 [Example 84-3]
7,< 100,CNC[C@@H](O)COc1ccc(F)c(-c2nc(-c3c(C)noc3C)c(C)c(N3Cc4cncnc4C3)n2)c1 [Example 260-3]
8,< 100,CNC[C@@H](O)COc1ccc(Cl)c(-c2nc(N[C@H]3CCO[C@H](C)C3)c(C)c(-c3c(C)noc3C)n2)c1 [Example 196-3]
9,< 100,CNCC(O)COc1cccc(-c2nc(NCCCN3CCCC3=O)cc(-c3ccc(C(F)(F)F)nc3)n2)c1 (centres unmarked) [Example 71-1]
10,< 100,CNC[C@H](O)COc1ccc(Cl)c(-c2nc(N[C@H]3C[C@H](OC)C3)c(C)c(-c3c(C)noc3C)n2)c1 [Example 53-3]
11,< 100,CNC[C@@H](O)COc1ccc(Cl)c(-c2nc(NC[C@H]3CCCO3)c(C)c(-c3c(C)noc3C)n2)c1 [Example 130-3]
12,< 100,CCOC(=O)N1CCC(Nc2nc(-c3cc(OC[C@H](O)CNC)ccc3Cl)nc(-c3c(C)noc3C)c2C)CC1 [Example 88-3]
13,< 100,CNC[C@@H](O)COc1ccc(Cl)c(-c2nc(-c3c(C)noc3C)c(Cl)c(N3CC4(CCOCC4)C3)n2)c1 [Example 229-3]
14,< 100,CNC[C@H](O)COc1ccc(Cl)c(-c2nc(-c3c(C)noc3C)c(C)c(N3Cc4ccncc4C3)n2)c1 [Example 90-3]
15,< 100,CNC[C@@H](O)COc1ccc(Cl)c(-c2nc(-c3c(C)noc3C)c(C)c(N3CC4(CCN(C(=O)OC(C)C)CC4)C3)n2)c1 [Example 284-3]
16,< 100,CNC[C@H](O)COc1ccc(F)c(-c2nc(N[C@H]3CCN(C4CC4)C[C@H]3F)c(C)c(-c3c(C)noc3C)n2)c1 [Example 99-3]
17,< 100,CNC[C@@H](O)COc1ccc(Cl)c(-c2nc(-c3c(C)noc3C)c(C)c(N3CC4(CCOCC4)C3)n2)c1 [Example 118-3]
18,< 100,CNC[C@@H](O)COc1ccc(Cl)c(-c2nc(N[C@H]3C[C@@](C)(OC)C3)c(C)c(-c3c(C)noc3C)n2)c1 [Example 110-3]
19,< 100,CNC[C@H](O)COc1ccc(F)c(-c2nc(-c3c(C)noc3C)c(C)c(N3CCC4(CC3)CN(S(C)(=O)=O)C4)n2)c1 [Example 76-3]
20,< 100,CCOC(=O)N1CCC2(C1)CN(c1nc(-c3cc(OC[C@H](O)CNC)ccc3Cl)nc(-c3c(C)noc3C)c1C)C2 [Example 287-3]
